Assay results published in PMC5667462, “Benzoylphenyl thiocyanates are new, effective inhibitors of the mycobacterial resuscitation promoting factor B protein” (Annals of Clinical Microbiology and Antimicrobials, 2017).

Key:
[1] = target: T1, RpfB (catalytic domain, residues 280-362) (Mycobacterium tuberculosis, UniProt P9WG29); assay: release of fluorescent fragments from FITC-labelled peptidoglycan; assay type: biochemical; conditions: read-out: IC50 Rpf-hydrolysis of PG, μM / M. tuberculosis
T1 sequence (P9WG29 280-362): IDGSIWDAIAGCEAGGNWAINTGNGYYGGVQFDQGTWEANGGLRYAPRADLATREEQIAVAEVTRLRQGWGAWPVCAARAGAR
Excerpt: release of fluorescent fragments from FITC-labelled peptidoglycan on RpfB (catalytic domain, residues 280-362)

[2] = target: T1, RpfB (catalytic domain, residues 280-362); assay: intrinsic tryptophan fluorescence quenching (Stern-Volmer); assay type: binding; conditions: 50 mM phosphate buffer, pH 6.0; room temperature; RpfB 25.6 μg/ml; excitation 280 nm

Row | SMILES | IC50 [1] [µM] | intrinsic tryptophan fluorescence quenching (Stern-Volmer) [2]
1 | N#CSc1cccc(C(=O)c2ccccc2)c1 [II, 3-Benzoylphenyl thiocyanate] | 1.7 ± 0.4 | 
2 | N#CSc1ccc(C(=O)c2ccccc2)cc1 [III, 4-Benzoylphenyl thiocyanate] | 1.2 ± 0.5 | 
3 | N#CSc1ccc(C(=O)c2ccc(SC#N)c([N+](=O)[O-])c2)cc1[N+](=O)[O-] [IV, Bis(4-thiocyano-3-nitrophenyl)methanone] | 5.8 ± 2 | confirmed by quenching of Rpf’s autofluorescence by the compound (IV)
4 | N#CSc1ccc(C(=O)c2ccc(SC#N)cc2)cc1 [V, Bis(4-thiocyanophenyl)methanone] | 4.3 ± 2.4 | 
5 | N#CSc1cccc(C(=O)c2cccc(SC#N)c2)c1 [VI, Bis(3-thiocyanophenyl)methanone] | 3.6 ± 1.2 | 
